Experimental data: ChEMBL document CHEMBL3885861, “Open TG-GATES”

Organism: Rattus norvegicus
Experiment: Open TG-GATES - Regimen: Single
Format: toxicity, organism-based, Sprague-Dawley
Parameters: regimen Single, gender Male, age 6 weeks
Settings: in vivo, po, 25 mg/kg, route gavage, dose level Middle; for APTT / Bas / Eos / Fbg / Hb / Ht / Lym / MCH / MCHC / MCV / Mono / Neu / PT / Plat / RBC / Ret / WBC: tissue Blood; for KIDNEY_L / KIDNEY_R / KIDNEY_TOTAL: tissue Kidney; for LIVER: tissue Liver; for A/G / ALP / ALT / AST / BUN / CRE / Ca / Cl / DBIL / GLC / IP / K / LDH / Na / PL / RALB / TBIL / TC / TG / TP / gamma-GTP: tissue Plasma

## NC1=NC(=O)C(c2ccccc2)O1 (configuration not stated) [PEMOLINE]
3 h
  TERMINAL_BW: 210.1 g
  APTT: 15.6 s
  Bas: 0%
  Eos: 1%
  Fbg: 280.4 mg/dL
  Hb: 13.5 g/dL
  Ht: 39.8%
  Lym: 74.2%
  MCH: 21.3 pg
  MCHC: 33.8%
  MCV: 62.9 fL
  Mono: 3.8%
  Neu: 20.6%
  PT: 13.1 s
  Plat: 115 x10_4/uL
  RBC: 633.2 x10_4/ul
  Ret: 8.8%
  WBC: 86.4 x10_2/uL
  KIDNEY_L: 0.9 g
  KIDNEY_R: 0.9 g
  KIDNEY_TOTAL: 1.8 g
  LIVER: 9.3 g
  A/G: 1
  ALP: 1568.2 IU/L
  ALT: 42.6 IU/L
  AST: 86 IU/L
  BUN: 8.2 mg/dL
  CRE: 0.2 mg/dL
  Ca: 10.5 mg/dL
  Cl: 106.4 meq/L
  DBIL: 0.01 mg/dL
  GLC: 185.2 mg/dL
  IP: 8.5 mg/dL
  K: 3.8 meq/L
  LDH: 104 IU/L
  Na: 140.4 meq/L
  PL: 122.4 mg/dL
  RALB: 2.7 g/dL
  TBIL: 0.044 mg/dL
  TC: 72.4 mg/dL
  TG: 39.6 mg/dL
  TP: 5.4 g/dL
  gamma-GTP: 1.4 IU/L
6 h
  TERMINAL_BW: 209.6 g
  APTT: 17.7 s
  Bas: 0.2%
  Eos: 1%
  Fbg: 316.4 mg/dL
  Hb: 13.6 g/dL
  Ht: 40%
  Lym: 72.2%
  MCH: 21.7 pg
  MCHC: 34%
  MCV: 63.7 fL
  Mono: 2.6%
  Neu: 23.6%
  PT: 13.4 s
  Plat: 122.6 x10_4/uL
  RBC: 629.6 x10_4/ul
  Ret: 9.8%
  WBC: 101.7 x10_2/uL
  KIDNEY_L: 0.9 g
  KIDNEY_R: 0.9 g
  KIDNEY_TOTAL: 1.8 g
  LIVER: 8.2 g
  A/G: 1
  ALP: 1568 IU/L
  ALT: 44 IU/L
  AST: 81.8 IU/L
  BUN: 7 mg/dL
  CRE: 0.2 mg/dL
  Ca: 10.4 mg/dL
  Cl: 108.2 meq/L
  DBIL: 0.01 mg/dL
  GLC: 179.2 mg/dL
  IP: 9.4 mg/dL
  K: 3.5 meq/L
  LDH: 67.6 IU/L
  Na: 140.8 meq/L
  PL: 121.4 mg/dL
  RALB: 2.8 g/dL
  TBIL: 0.052 mg/dL
  TC: 77 mg/dL
  TG: 15.2 mg/dL
  TP: 5.5 g/dL
  gamma-GTP: 1 IU/L
9 h
  TERMINAL_BW: 212 g
  APTT: 16 s
  Bas: 0%
  Eos: 0.6%
  Fbg: 316.2 mg/dL
  Hb: 13.7 g/dL
  Ht: 40.4%
  Lym: 75.2%
  MCH: 21.7 pg
  MCHC: 33.8%
  MCV: 64.2 fL
  Mono: 2.4%
  Neu: 21.2%
  PT: 13.4 s
  Plat: 112 x10_4/uL
  RBC: 630.8 x10_4/ul
  Ret: 9.7%
  WBC: 91.7 x10_2/uL
  KIDNEY_L: 0.9 g
  KIDNEY_R: 0.9 g
  KIDNEY_TOTAL: 1.7 g
  LIVER: 8.1 g
  A/G: 1
  ALP: 1640.8 IU/L
  ALT: 40.2 IU/L
  AST: 83.4 IU/L
  BUN: 8.6 mg/dL
  CRE: 0.2 mg/dL
  Ca: 10.6 mg/dL
  Cl: 106.4 meq/L
  DBIL: 0.014 mg/dL
  GLC: 191.6 mg/dL
  IP: 9.7 mg/dL
  K: 3.8 meq/L
  LDH: 94.4 IU/L
  Na: 141.4 meq/L
  PL: 137 mg/dL
  RALB: 2.8 g/dL
  TBIL: 0.044 mg/dL
  TC: 86.8 mg/dL
  TG: 27.2 mg/dL
  TP: 5.6 g/dL
  gamma-GTP: 1.4 IU/L
24 h
  TERMINAL_BW: 209.6 g
  APTT: 16.3 s
  Bas: 0%
  Eos: 1%
  Fbg: 290 mg/dL
  Hb: 12.9 g/dL
  Ht: 37.6%
  Lym: 80.4%
  MCH: 21.9 pg
  MCHC: 34.3%
  MCV: 63.7 fL
  Mono: 3.6%
  Neu: 14.4%
  PT: 13 s
  Plat: 107.2 x10_4/uL
  RBC: 589 x10_4/ul
  Ret: 8.2%
  WBC: 73.1 x10_2/uL
  KIDNEY_L: 0.9 g
  KIDNEY_R: 0.9 g
  KIDNEY_TOTAL: 1.8 g
  LIVER: 9.3 g
  A/G: 1
  ALP: 1533.8 IU/L
  ALT: 46.6 IU/L
  AST: 87.8 IU/L
  BUN: 15.4 mg/dL
  CRE: 0.2 mg/dL
  Ca: 10.6 mg/dL
  Cl: 104.4 meq/L
  DBIL: 0.014 mg/dL
  GLC: 176.8 mg/dL
  IP: 8.8 mg/dL
  K: 4.2 meq/L
  LDH: 71.6 IU/L
  Na: 140.6 meq/L
  PL: 128.2 mg/dL
  RALB: 2.7 g/dL
  TBIL: 0.032 mg/dL
  TC: 78 mg/dL
  TG: 50 mg/dL
  TP: 5.4 g/dL
  gamma-GTP: 1 IU/L
